# Measurements as given in patent publication EP4759807A1, “PROTEOLYSIS TARGETING CHIMERA COMPOUND FOR DEGRADING IRAK4 AND USE THEREOF” (Shenzhen Zhongge Biological Technology Co., Ltd., priority 2023, dated 2025).
# Experiments:
# IRAK4 [1] = target: T1, IRAK4 (Homo sapiens, UniProt Q9NWZ3); assay: WB detection of proteolysis (Western Blot, THP-1 cells); format: cell-based; conditions: Western Blot, THP-1 cells, 24 h; for DC50: read-out: DC50
# T1 sequence (Q9NWZ3 1-460): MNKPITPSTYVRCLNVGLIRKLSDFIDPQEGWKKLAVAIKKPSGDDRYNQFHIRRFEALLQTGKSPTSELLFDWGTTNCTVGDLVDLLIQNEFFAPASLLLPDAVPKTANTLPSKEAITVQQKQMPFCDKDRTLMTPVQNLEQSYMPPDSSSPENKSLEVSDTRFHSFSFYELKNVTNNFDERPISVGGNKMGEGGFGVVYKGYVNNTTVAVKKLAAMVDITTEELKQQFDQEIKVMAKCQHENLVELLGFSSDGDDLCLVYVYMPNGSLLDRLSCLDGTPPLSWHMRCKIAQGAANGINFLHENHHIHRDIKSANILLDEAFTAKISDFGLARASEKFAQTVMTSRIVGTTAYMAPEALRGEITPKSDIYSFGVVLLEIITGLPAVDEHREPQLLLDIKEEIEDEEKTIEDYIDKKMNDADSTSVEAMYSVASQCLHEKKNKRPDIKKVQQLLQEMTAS
# Protocol: The degradation level of IRAK4 in THP-1 cells was detected by Western Blot technology. […] 1000X gradient dilution stock of the compound was prepared, with the highest concentration set at 300 µM. The dilution was carried out using DMSO in a 1:3 dilution factor, yielding a total of 9 concentrations. 1000X gradient dilutions of the compound were added to a 12-well plate, with 1 µL per well. Incubation was performed under conditions of 37°C and 5% CO2 for 24 h, and the cells were collected into 2 mL of centrifuge tubes and centrifuged at 5000 rpm for 5 min, and the supernatant was removed. 100 µL of RIPA lysis buffer (Beyotime, P0013C) was added and mixed uniformly, then the cells were lysed on ice for 10 min, centrifuged at 4°C at 14000 rpm for 10 min, and the supernatant was collected. Protein content was determined with BCA (Solarbio, PC0020-10*50T). 75 µL of the supernatant was taken, and 25 µL of NuPAGE LDS Sample Buffer (4X) (Thermo B0007) was added to each tube (5% β-mercaptoethanol was added before use) to prepare samples, and the samples were boiled in a metal bath at 100°C for 5 min. […] 1x NuPAGE™ MOPS SDS electrophoresis buffer (20X) (Invitrogen, NP0001) was prepared, and the electrophoresis instrument was set to a constant current of 300 mA for 100 min, and the protein was transferred to a PVDF membrane (Millipore, IPVH00010). […] The membrane was washed three times with 1x TBST (Elabscience E-BC-R335) the next day, each time for 5 min. […] The membrane was washed three times with TBST, each time for 5 min. The Odyssey imaging system Li-cor Odyssey CLx was used to detect signals and analyze data. GraphPad (Prism 9.3) software was used to perform analysis for data, and non-linear fitting (non-liner inhibitor (Bell-shaped)) and four parameters (4 parameter) were used, and the parameters was as follows: Span1 = Plateau1−Dip [formula] Span2 = Plateau2−Dip [formula] Section1 = Span1/(1+10^(∧)((LogEC50_1−X)*nH1)) [formula] Section2 = Span2/(1+10^(∧)((X−LogEC50_2)*nH2)) [formula]
# The equation was as follows: Y=Dip+Section1+Section2.
# IRAK4 [2] = target: T1, IRAK4; assay: Hibit fluorescence detection of proteolysis (IRAK4-HiBiT in HEK293T cells); format: cell-based; set-up: host or cells: HEK293T (ATCC); conditions: for Dmax: HEK-293T; for DC50: IRAK4-HiBiT, HEK293T cells, 24 h
# How it was run: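 Degradation read-out: luminescence from lytic HiBiT detection (15 min, room temperature) after 24 h compound exposure (37 °C, 5% CO2) of HEK293T cells transiently expressing IRAK4 fused to a HiBiT tag. Data fitted to a bell-shaped four-parameter model giving two EC50 values.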
Structure (SMILES),DC50 (IRAK4 [1]) [nM],Dmax (IRAK4 [1]; read-out: Dmax) [%],Dmax (IRAK4 [2]) [%],DC50 (IRAK4 [2]; read-out: DC50) [nM],DC50 (IRAK4 [2]) [nM],Dmax (IRAK4 [1])
C[C@H]1CN(c2ccn3ncc(-c4cn(-c5cn([C@H]6CC[C@H](CN7CCC8(CC7)CN(c7cccc9c7n(C)c(=O)n9C7CCC(=O)NC7=O)C8)CC6)nc5C(F)F)nn4)c3n2)CCO1 (stereo partly shown) [Compound 178],< 10,> 70,> 80,< 0.5,,
C[C@H]1COCCN1c1ccn2ncc(-c3cn(-c4cn([C@H]5CC[C@H](CN6CCC7(CC6)CCN(c6cccc8c6n(C)c(=O)n8C6CCC(=O)NC6=O)C7)CC5)nc4C(F)F)nn3)c2n1 (stereo partly shown) [Compound 204],< 10,60 to 70,70 to 80,< 0.5,,
C[C@H]1CN(c2ccn3ncc(-c4cn(-c5cn([C@H]6CC[C@H](CN7CCC(N8CCN(c9cccc%10c9n(C)c(=O)n%10C9CCC(=O)NC9=O)CC8)CC7)CC6)nc5C(F)F)nn4)c3n2)CCO1 (stereo partly shown) [Compound 208],< 10,> 70,> 80,< 0.5,,
Cn1c(=O)n(C2CCC(=O)NC2=O)c2cccc(N3CCC4(CCN(C[C@H]5CC[C@H](n6cc(-n7cc(-c8cnn9ccc(N%10CCC(C)(O)CC%10)nc89)nn7)c(C(F)F)n6)CC5)C4)CC3)c21 (stereo partly shown) [Compound 238],10 to 30,60 to 70,> 80,< 0.5,,
Cn1c(=O)n(C2CCC(=O)NC2=O)c2cccc(N3CCN(C[C@H]4CC[C@H](n5cc(-n6cc(-c7cnn8ccc(N9CCOCC9)nc78)nn6)c(C(F)F)n5)CC4)CC3)c21 (stereo partly shown) [Example 30],< 10,< 60,> 80,,< 0.5,
Cn1c(=O)n(C2CCC(=O)NC2=O)c2cccc(N3CCC(N4CCN(C[C@H]5CC[C@H](n6cc(-n7cc(-c8cnn9ccc(N%10CCO[C@@H](CO)C%10)nc89)nn7)c(C(F)F)n6)CC5)CC4)CC3)c21 (stereo partly shown) [Example 175],< 10,> 70,,,,
Cn1c(=O)n(C2CCC(=O)NC2=O)c2cccc(N3CCC4(CCN(CC5CCC(n6cc(-n7cc(-c8cnn9ccc(N%10CCO[C@@H](CO)C%10)nc89)nn7)c(C(F)F)n6)CC5)CC4)CC3)c21 (stereo partly shown) [Example 176],< 10,,,,,A (Dmax ≥ 70%)
Cn1c(=O)n(C2CCC(=O)NC2=O)c2cccc(N3CCC(N4CCN(C[C@H]5CC[C@H](n6cc(-n7cc(-c8cnn9ccc(N%10CCC[C@@H](O)C%10)nc89)nn7)c(C(F)F)n6)CC5)CC4)CC3)c21 (stereo partly shown) [Example 247],< 10,> 70,,,,
Cn1c(=O)n(C2CCC(=O)NC2=O)c2cccc(N3CCC(CN4CCC5(CCC(n6cc(-n7cc(-n8ccc9cc(C(N)=O)cnc98)nn7)c(C(F)F)n6)CC5)CC4)CC3)c21 (stereo not shown) [Example 286],> 30,< 60,,,,
"C[C@H]1CN(c2cccc3c2n(C)c(=O)n3C2CCC(=O)NC2=O)CCN1C[C@H]1CC[C@H](n2cc(-n3cc(-c4cnn5ccc(N6CCC[C@H](O)C6)nc45)nn3)c(C(F)F)n2)CC1 (stereo partly drawn) [Example 287, 3-(4-((S)-4-(((1R,4S)-4-(3-(difluoromethyl)-4-(4-(5-((S)-3-hydroxypiperidin-1-yl)pyrazolo[1,5-a]pyrimidin-3-yl)-1H-1,2,3-triazol-1-yl)-1H-pyrazol-1-yl)cyclohexyl)methyl)-3-methylpiperazin-1-yl)-3-methyl-2-oxo-2,3-dihydro-1H-benzo[d]imidazol-1-yl)piperidine-2,6-dione]",< 10,> 70,,,,
Cn1c(=O)n(C2CCC(=O)NC2=O)c2cccc(N3CCC(CN4CCC5(CCC(n6cc(-n7cc(-c8cnn9ccc(N%10CCC[C@H](O)C%10)nc89)nn7)c(C(F)F)n6)CC5)CC4)CC3)c21 (stereo partly shown) [Example 290],< 10,> 70,,,,
"C[C@H]1CN(C2CCN(c3cccc4c3n(C)c(=O)n4C3CCC(=O)NC3=O)CC2)CCN1C[C@H]1CC[C@H](n2cc(-n3cc(-c4cnn5ccc(N6CCC[C@H](O)C6)nc45)nn3)c(C(F)F)n2)CC1 (stereo partly drawn) [Example 291, 3-(4-(4-((S)-4-(((1R,4S)-4-(3-(difluoromethyl)-4-(4-(5-((S)-3-hydroxypiperidin-1-yl)pyrazolo[1,5-a]pyrimidin-3-yl)-1H-1,2,3-triazol-1-yl)-1H-pyrazol-1-yl)cyclohexyl)methyl)-3-methylpiperazin-1-yl)piperidin-1-yl)-3-methyl-2-oxo-2,3-dihydro-1H-benzo[d]imidazol-1-yl)piperidine-2,6-dione]",< 10,> 70,,,,
C[C@@H]1CN(C2CCN(c3cccc4c3n(C)c(=O)n4C3CCC(=O)NC3=O)CC2)CCN1C[C@H]1CC[C@H](n2cc(-n3cc(-c4cnn5ccc(N6CCC[C@H](O)C6)nc45)nn3)c(C(F)F)n2)CC1 (stereo partly shown) [Example 292],< 10,> 70,,,,
Cn1nc(C2CCC(=O)NC2=O)c2cccc(N3CCC(N4CCN(C[C@H]5CC[C@H](n6cc(-n7cc(-c8cnn9ccc(N%10CCC[C@H](O)C%10)nc89)nn7)c(C(F)F)n6)CC5)CC4)CC3)c21 (stereo partly shown) [Example 293],< 10,> 70,,,,
"C[C@@H]1CN(C[C@H]2CC[C@H](n3cc(-n4cc(-c5cnn6ccc(N7CCC[C@H](O)C7)nc56)nn4)c(C(F)F)n3)CC2)CCN1C1CCN(c2cccc3c2n(C)c(=O)n3C2CCC(=O)NC2=O)CC1 (stereo partly drawn) [Example 294, 3-(4-(4-((R)-4-(((1R,4R)-4-(3-(difluoromethyl)-4-(4-(5-((S)-3-hydroxypiperidin-1-yl)pyrazolo[1,5-a]pyrimidin-3-yl)-1H-1,2,3-triazol-1-yl)-1H-pyrazol-1-yl)cyclohexyl)methyl)-2-methylpiperazin-1-yl)piperidin-1-yl)-3-methyl-2-oxo-2,3-dihydro-1H-benzo[d]imidazol-1-yl)piperidine-2,6-dione]",< 10,> 70,,,,
"C[C@H]1CC2(CCN(c3cccc4c3n(C)c(=O)n4C3CCC(=O)NC3=O)CC2)CN1C[C@H]1CC[C@H](n2cc(-n3cc(-c4cnn5ccc(N6CCC[C@H](O)C6)nc45)nn3)c(C(F)F)n2)CC1 (stereo partly drawn) [Example 295, 3-(4-((S)-2-(((1R,4S)-4-(3-(difluoromethyl)-4-(4-(5-((S)-3-hydroxypiperidin-1-yl)pyrazolo[1,5-a]pyrimidin-3-yl)-1H-1,2,3-triazol-1-yl)-1H-pyrazol-1-yl)cyclohexyl)methyl)-3-methyl-2,8-diazaspiro[4.5]dec-8-yl)-3-methyl-2-oxo-2,3-dihydro-1H-benzo[d]imidazol-1-yl)piperidine-2,6-dione]",> 30,> 70,,,,
C[C@@H]1CC2(CCN(c3cccc4c3n(C)c(=O)n4C3CCC(=O)NC3=O)CC2)CN1C[C@H]1CC[C@H](n2cc(-n3cc(-c4cnn5ccc(N6CCC[C@H](O)C6)nc45)nn3)c(C(F)F)n2)CC1 (stereo partly shown) [Example 296],10 to 30,> 70,,,,
"Cn1c(=O)n(C2CCC(=O)NC2=O)c2cccc(N3CCC(N4CCN(C[C@H]5CC[C@H](n6cc(-n7cc(-c8cnn9ccc(N%10CCC[C@H](O)C%10)nc89)nn7)c(C(F)F)n6)CC5)CC4)[C@@H](F)C3)c21 (stereo partly drawn) [Example 297, 3-(4-((3S)-4-(4-(((1R,4S)-4-(3-(difluoromethyl)-4-(4-(5-((S)-3-hydroxypiperidin-1-yl)pyrazolo[1,5-a]pyrimidin-3-yl)-1H-1,2,3-triazol-1-yl)-1H-pyrazol-1-yl)cyclohexyl)methyl)piperazin-1-yl)-3-fluoropiperidin-1-yl)-3-methyl-2-oxo-2,3-dihydro-1H-benzo[d]imidazol-1-yl)piperidine-2,6-dione]",< 10,> 70,,,,
